Values joined by “and” are separate entries in the source; they are usually repeats but may differ in a detail not shown here. Equal entries are not always repeated. Active and inactive are the calls of the source.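 The calls were made as follows: active = AC50 no more than tenfold above the top dose tested, or full inhibition at every dose with a flat fit (cut at about 19 µM in these data); inconclusive = flat curve fit with inhibition between 30% and 70%, or poor fit; inactive = AC50 more than tenfold above the top dose tested.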
Test system: HMLE_sh_eGFP viability, CellTiter-Glo luminescence, 72 h
Experiment: viability loss of HMLE_sh_eGFP cells – cell-based, luminescence, counter-screen for HMLE_sh_ECad selective toxicity project, dose response (AID 463074);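 also: counterscreen control line to flag general toxicity for the HMLE_sh_ECad screen; potency for loss of viability as luminescence drops below DMSO wells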

SMILES	AC50
CN1CCN(c2ccccc2NC(=O)c2ccc(-c3ccc(Cl)c(Cl)c3)o2)CC1	6.68 µM
O=C(Nc1ccon1)c1nc[nH]c1C(=O)NCc1ccccc1	1.77 µM
Cc1ccc(C(=O)Cn2nnc3c(sc4nc5c(c(-c6ccccc6)c43)CCC5)c2=O)cc1	0.687 µM
CCC(c1nnnn1Cc1ccco1)N1CCN(c2cc(Cl)ccc2C)CC1 (stereo unspecified)	4.04 µM
COc1ccc(C)cc1NC(=O)c1ccccc1NS(=O)(=O)c1ccc(Cl)s1	7.89 µM
CNC(=O)c1cc(Oc2ccc(NC(=O)Nc3ccc(Cl)c(C(F)(F)F)c3)cc2)ccn1	2.39 µM
C=CCn1c2ccccc2c(=O)c2cc(C#Cc3cc(OC)cc(OC)c3)ccc21	11.1 µM
O=C(NC(NC(=S)Nc1cccc(Cl)c1)C(Cl)(Cl)Cl)OCc1ccccc1 (stereo unspecified)	3.93 µM
CCC(C)Sc1cccc(-c2nc3cc(C)ccn3c2NCc2ccccc2)c1 (stereo unspecified)	4.89 µM
COc1ccc(-c2nn(-c3ccccc3)cc2C(=O)N(C)CC(=O)Nc2cccc(F)c2)cc1	15 µM
O=C(Nc1cccc(S(=O)(=O)N2CCCCC2)c1)c1ccc([N+](=O)[O-])o1	3.83 µM
Cc1cccc(NC(=O)c2nc[nH]c2C(=O)NC2CCN(C(=O)OC(C)(C)C)CC2)c1	6.79 µM
O=C(NCCc1ccccc1)c1cc(-c2ccccc2)c(N2CCOCC2)s1	3.61 µM
CCN(CC)Cc1c(O)ccc2c1O/C(=C\C=C\c1ccccc1)C2=O	18.8 µM
COC(=O)c1ccccc1NCc1cc(=O)oc2cc(O)c(O)cc12	10.9 µM
C/C(=N\Nc1ccccc1)c1c(O)n(C)c(=O)n(C)c1=O	4.05 µM
COc1ccc(-c2sc3ccccc3c2-c2ccc(OCCN(C)C)cc2)cc1	3.38 µM
CC(CNC(=S)Nc1cc(F)cc(F)c1)CSc1ccc(Cl)cc1 (stereo unspecified)	6.55 µM
CC(Nc1nc(-c2ccc(Cl)cc2)cs1)c1nc2cc(Cl)c(N3CCCCC3)cc2n1CCOCCO (stereo unspecified)	1.97 µM
Cc1cccc(N(C)C(=O)c2cc3c(=O)[nH]c4ccc(C)cc4c3s2)c1	2.52 µM
O=C(Nc1cccc(Cl)c1N1CCCC1)c1cccc(-c2cc3ccccc3oc2=O)c1	0.869 µM
CC(Cc1ccccc1)NCCC(c1ccccc1)c1ccccc1 (stereo unspecified)	8.73 µM

SMILES	AC50
O=C(c1ccc(OCCN2CCCCC2)cc1)c1c(-c2ccc(O)cc2)sc2cc(O)ccc12	2.35 µM
O=C(c1ccc(Cl)cc1)c1c[nH]c(C(=O)NNc2ccccc2)c1	1.85 µM
C[C@@H]1CN([C@H](C)CO)C(=O)c2cc(NC(=O)Nc3ccc(C(F)(F)F)cc3)ccc2O[C@H]1CN(C)S(=O)(=O)c1ccc(Cl)cc1	3.84 µM
COc1cccc2sc3cc(C#CC4(O)CCCCC4)ccc3c(=O)c12	3.1 µM
CCC1=NN(C(=O)c2ccc(Cl)cc2)C(O)(c2ccc(C)cc2)C1 (stereo unspecified)	7.99 µM
O=C(c1ccc(CSc2ccccc2)cc1)N1CCN(c2ccccc2)CC1	9.49 µM
O=C1CC(=C(c2ccccc2)c2ccccc2)C(=O)N1CCCCN1CCN(c2cccc(Cl)c2)CC1	2.02 µM
CN(C)CCOc1ccc(-c2c(-c3ccccc3)sc3ccccc23)cc1	2.53 µM
COc1cccc(C2C3=C(N=c4s/c(=C\c5cccc(O)c5)c(=O)n42)c2ccccc2CC3)c1OC (stereo unspecified)	8.57 µM
COc1ccc(C2=NN(C(=O)COC(=O)c3ccc(S(C)(=O)=O)c([N+](=O)[O-])c3)C(c3ccco3)C2)cc1 (stereo unspecified)	3.84 µM
O=Cc1cc2ccccc2nc1SCc1ccc(Cl)cc1	5.69 µM
Cc1c(NC(=O)c2ccc([N+](=O)[O-])o2)cccc1-c1nc2ncccc2o1	6.52 µM
COc1ccc2sc(-c3ccc(N(C)C)cc3)c(C#Cc3cncn3C)c2c1	2.18 µM
S=c1[nH]nc(C2CCCCC2)n1/N=C/C(Cl)=C\c1ccccc1	8.35 µM
CCc1nc(N2CCC(C)CC2)c2oc3ccccc3c2n1	7.06 µM
O=C(NCc1nc(-c2ccc(C(F)(F)F)cc2)no1)Nc1ccc(OC(F)(F)F)cc1	3.12 µM
CC1=NN(c2nc(-c3ccc(F)cc3)cs2)C(=O)C1	13.4 µM
CC[C@@H]1Cc2cc(O)ccc2C2=C1c1ccc(O)cc1C[C@H]2CC	4.15 µM
CC(=O)O[C@H]1[C@@H](O)[C@H](O)[C@H](Oc2c(O)c(C)c3c4c2[C@@H](C)CC[C@@H]4[C@@H](C)C[C@H]3C=C(C)C)O[C@H]1C	3.57 µM
CCN(CC)CCSc1nnc2c3ccccc3n(Cc3ccccc3)c2n1	2.47 µM
COc1ccc(OC)c(Nc2c3ccccc3nc3ccccc23)c1	2.7 µM
CCCn1c(=O)c(C(=O)NNS(=O)(=O)c2ccc(Cl)cc2)c(O)c2ccccc21	2.03 µM

SMILES	AC50
O=C(N/N=C/c1ccc(O)cc1O)/C(=C/c1ccccc1)CCO	7.22 µM
C/C(N)=C(/C#N)C(=O)COC(=O)c1cc(-c2ccc(C)cc2)nc2ccccc12	15 µM
CCOC(=O)c1c(-c2ccccc2)csc1NC(=O)c1nn(CC)cc1Br	0.478 µM
CN(C)c1ccc(/C=C2\CCC/C(=C\c3ccccc3)C2=O)cc1	5.47 µM
CC(=O)Nc1ccc(C2CC(c3ccc(Cl)cc3)=NN2c2ccccc2)cc1 (stereo unspecified)	2.13 µM
NC(=O)c1sc(-c2ccsc2)cc1NS(=O)(=O)c1ccc(C(F)(F)F)cc1	16.1 µM
COc1cc(N=Nc2ccc3ccccc3c2)ccc1O	6.43 µM
CNc1ccccc1C(C)(C)c1cc(-c2cc(C)cc(C)c2)no1	18.4 µM
COc1cccc(O)c1CN1CCC(C(=O)Nc2ccc(-c3cccc(C)c3)cc2)CC1	4.06 µM
CSc1ccccc1C(=O)Nc1cc(C)ccc1C	> 19.5 µM (inactive)
C=CCn1c(SCc2c(C)noc2C)nc2ccccc2c1=O	1.78 µM
COc1ccc(/C=C(\C#N)c2c[nH]c3ccccc23)cc1	0.577 µM
Cc1cc(SCC(=O)N/N=C/c2ccc(O)cc2O)nc2ccccc12	4.75 µM
O=[N+]([O-])c1cc(S(=O)(=O)N2CCCCCC2)ccc1F	3.66 µM
Cc1nc(NC(=O)c2ccco2)sc1-c1csc(Nc2ccc(Cl)cc2)n1	2.54 µM
O=C(Nc1ccc(Nc2ccccc2)cc1)Nc1ccccc1Cl	3.44 µM
C=C1/C(=C\C=C2/CCC[C@]3(C)[C@@H]([C@H](C)/C=C/[C@@H](O)C4CC4)CC[C@@H]23)C[C@@H](O)C[C@@H]1O	6.49 µM
COc1ccc(-n2sc3c(c2=S)-c2cc(OC)ccc2NC3(C)C)cc1	3.51 µM
COc1ccc([C@H]2Oc3cc(O)cc(O)c3C(=O)C2[C@@H]2C(=O)c3c(O)cc(O)cc3O[C@@H]2c2ccc(OC)cc2)cc1 (stereo partly specified)	10.6 µM
O=c1c2cn[nH]c2nc(SCc2ccccc2F)n1-c1ccc(Br)cc1	4.9 µM
CC(=O)Nc1sc(C)c(C)c1C(=O)OCC(=O)N(CC(C)C)c1c(N)n(Cc2ccccc2)c(=O)[nH]c1=O	2.85 µM
CCc1ccc(CNC(=O)C2CCN(c3nnc(C)c4c(C)n(-c5ccc(C)cc5)nc34)CC2)cc1	4.14 µM

SMILES	AC50
COC(=O)Nc1ccc(S(=O)(=O)N2c3ccccc3CCC2C)cc1 (stereo unspecified)	1.42 µM
C/C(=N\NC(=O)c1cc(C)nc2ccccc12)c1ccccn1	13.1 µM
COc1ccccc1/C=C1\SC(=S)N(CCC(=O)NCCCn2ccnc2)C1=O	18.6 µM
O=C(Cc1ccc(Cl)c(Cl)c1)Nc1ccc(SC(F)F)cc1	3.93 µM
COc1cc2c(cc1NC(=O)CN(C)Cc1cccc(OC)c1OC)oc1ccccc12	3.56 µM
COc1cc(NS(=O)(=O)c2ccc(N/C=C(\C#N)c3nc4cc(Cl)ccc4o3)cc2)nc(OC)n1	7.54 µM
CCOC(=O)[C@@H]1[C@H]2COc3cc(OC)ccc3[C@H]2N2C(=O)N(c3ccc(C(F)(F)F)cc3)C(=O)[C@]12C	4.62 µM
COc1ccc(CN2CCC(N(CCc3ccccc3)Cc3ccccc3)CC2)c(OC)c1	5.43 µM
CC(C)CC(=O)NC(NC(=S)Nc1sc2c(c1C#N)CCCC2)C(Cl)(Cl)Cl (stereo unspecified)	10.6 µM
COc1ccc(Cc2nnc(N/N=C/c3ccccc3O)[nH]c2=O)cc1OC	3.4 µM
COc1cccc(C(=O)Nc2ccc(C3CC3(Cl)Cl)cc2)c1 (stereo unspecified)	16.4 µM
CN(C)CCNC(=O)COc1ccc(C23CC4CC(CC(C4)C2)C3)cc1	4.09 µM
O=[N+]([O-])c1ccc(/C=N/n2cnc3ccccc32)s1	6.83 µM
Cc1csc(NC(=S)Nc2cccc(Cl)c2)n1	10.4 µM
Clc1ccc(C(c2ccccc2Cl)C(Cl)Cl)cc1 (stereo unspecified)	6.32 µM
Cn1c(N)c(C(=O)COC(=O)c2ccccc2C(=O)c2ccc(Cl)c([N+](=O)[O-])c2)c(=O)n(C)c1=O	3.61 µM
CCCCCCOc1ccc(OC(=O)c2cccnc2)cc1	10.1 µM
C/C(=N\N=C(/N)SC1CC(=O)N(c2ccc(Cl)c(Cl)c2)C1=O)c1cccs1 (stereo unspecified)	7.3 µM
C/C(=N/Nc1ccc([N+](=O)[O-])cc1)c1ccc(C)cc1C	7.68 µM
Oc1ccc(Br)cc1-c1cc(-c2ccccc2)n[nH]1	6.31 µM
O=C(CCOc1ccccc1)N1CCN(c2ccc(O)cc2)CC1	3.25 µM
CCN1C(=O)/C(=C\N2CCN(c3cccc(Cl)c3)CC2)SC1=S	> 19.5 µM (inactive)

SMILES	AC50
CC/C(=C(\c1ccccc1)c1ccc(OCCN(C)C)cc1)c1ccccc1	6.69 µM and 6.32 µM
Cc1ccc(-c2csc3ncnc(-n4cnc5ccccc54)c23)cc1	4.28 µM
CC(=O)NC1=C(C#N)C(c2ccccc2)c2c(ccc3ccccc23)O1 (stereo unspecified)	3.44 µM
O=C(NC12CC3CC(CC(C3)C1)C2)c1ccc([N+](=O)[O-])o1	7.04 µM
O=C(COc1cccc(C(F)(F)F)c1)N1CCN(c2ccc(O)cc2)CC1	4.98 µM
O=C(N/N=C/c1ccc[nH]1)c1sc2ccccc2c1Cl	13.4 µM
CCc1cc(-c2n[nH]c(C)c2-c2ccccc2Cl)c(O)cc1OC	3.77 µM
N#C/C(=C\C=C\c1ccccc1[N+](=O)[O-])C(=O)NC1CCCCC1	6.88 µM
CC(NCC(O)COCCC12CC3CC(CC(C3)C1)C2)c1ccccc1 (stereo unspecified)	3.32 µM
Cc1cc2c(cc1C)CSC(c1c(O)ccc3ccccc13)SC2	3.12 µM
COC(=O)C(Cc1ccc(N(CCCl)CCCl)cc1)N=Cc1ccccc1O (stereo unspecified)	2.54 µM
CN(C)CCn1c2ccccc2c2nc3ccc([N+](=O)[O-])cc3cc21	15.6 µM
N=c1c2c(ncn1Cc1ccco1)Oc1ccc3ccccc3c1C2c1ccccc1 (stereo unspecified)	4.5 µM
COc1ccc(-c2nn(-c3ccccc3)cc2/C=N/N2C(=O)CSC2=S)cc1	3.97 µM
Oc1ccc(Br)cc1/C=N/NC(=S)NCCc1ccccc1	4.19 µM
CC(C)c1cccc(C(C)C)c1OC(=O)[C@H]1OC(c2ccc(Br)cc2)=C[C@@H]1c1ccc(Br)cc1	4.64 µM
C/C(=N\NC(=S)Nc1ccc(F)cc1)c1ccc2c(c1)OCCO2	2.36 µM
CC(O)CC(C(=O)NNc1ccccc1)C(=O)NNc1ccccc1 (stereo unspecified)	1.87 µM

— PubChem BioAssay AID463074 (Broad Institute, 2010)
